In patent US12030908B2, “Antimicrobial compounds, compositions, and uses thereof” (Lakewood Amedex, Inc., priority 2017, dated 2024):
Values after ≈ are worked out from the molar mass of the structure shown. Read-outs that look alike come from different tables or passages of the source.

What was measured:
pKa measurement = format: physicochemical; settings: read-out: pKa
E. coli = assay: Broth microdilution MIC at incremental pH, E. coli; format: cell-based; settings: Escherichia coli, read-out: MIC
Procedure: (§1) MIC testing is conducted using the broth (Mueller Hinton Broth) microdilution procedures relevant to each organism group as established by the Clinical and Laboratory Standards Institute (CLSI; 3-7). MIC plates are prepared in accordance with CLSI (3-7). To prepare the test plates, automated liquid handlers are used to conduct serial dilutions and liquid transfers. Automated liquid handlers utilized in this study include the Multidrop 384 (Labsystems, Helsinki, Finland) and the Biomek 2000 (Beckman Coulter, Fullerton CA). The solution is diluted to desired pH using 1 M Citric Acid or 1 M NaOH buffer. A standardized inoculum of each test organism is prepared per CLSI methods (3, 5-7) to equal a 0.5 McFarland standard in the appropriate media followed by an additional 1:20 dilution (1:10 for anaerobes).
(§2) The plates are then inoculated with 10 μL of the diluted 0.5 McFarland suspension using the Biomek 2000 from low to high drug concentration, resulting in a final concentration of approximately 5×10^5 CFU/mL per well. An un-inoculated plate is incubated for the purpose of assessing solubility of the drug in the test media. The plates are stacked 3 to 4 high, covered with a sterile lid on the top plate, and incubated for 18 to 24 hours according to CLSI. The MIC is recorded as the lowest concentration of respective compound that inhibited visible growth of the organism.

[1] = tested on: methicillin susceptible S. aureus (ATCC 29213); assay: Bacterial cytological profiling at pH 4, 5.5, 7 (Example 7), S. aureus; format: cell-based; settings: 125 mg/mL
Procedure: (§3) This bacterial cytological profiling (BCP) investigation uses methods and materials described previously by Nonejuie, P., Burkart, M., Poglianoa, K., Pogiano, J. (2013). Bacterial cytological profiling rapidly identifies the cellular pathways targeted by antibacterial molecules. Proc. Natl. Acad. Sci. U.S.A. 110(40):16169-16174. doi: 10.1073/pnas.1311066110.
(§4) For viable cell counts, cells are grown to OD600≈0.4 and diluted 1:1 into buffered or unbuffered media containing various compound concentrations. Samples are then collected and serially diluted (1:10) on a 96 well plate. Five microliters from each well are spotted on LB plates, incubated at 30° C., and viable cells are counted the next day.
(§5) Samples are collected at 10, 30, 120, and 240 min of exposure for viable cell count and imaging. For imaging, E. coli and S. aureus 200 μL of treated cells per time point are stained with 0.8 μg/mL FM4-64, 1.5 μg/mL DAPI, and 0.4 μM SYTOXGreen (Molecular Probes/Invitrogen). P. aeruginosa samples are stained 0.4 μM SYTOX Green, 28 μg/mL DAPI, and 1 μg/mL FM 4-64. Cells are transferred to an agarose pad (20% LB, 1% agarose) for imaging.
(§6) For Nu-3 and Nu-8 stocks (at pH 4, 5.5 and 7), stock concentration is 500 mg/mL. For pH 4, the stocks are prepared by dissolving Nu-3 in 25 mM citrate buffer and Nu-8 in 350 mM citric acid. […]

P. aeruginosa = assay: Broth microdilution MIC at incremental pH, P. aeruginosa; format: cell-based; settings: Pseudomonas aeruginosa, read-out: MIC
Procedure: as §1, §2

[2] = tested on: wild type E. coli (ATCC 25922); assay: Bacterial cytological profiling at pH 4, 5.5, 7 (Example 7), E. coli; format: cell-based; settings: pH 5.5 and 7
Procedure: as §3, §4, §5, §6

[3] = tested on: Escherichia coli (strain CFT073, TPPS 1041); assay: Initial urinary tract infection model in BALB/c mice, transurethral treatment (Example 9); format: in vivo; settings: 50 mg/kg transurethral 24 hr post-challenge; 60 minutes post-treatment
From the text: Female BALB/c mice (20-22 g) ordered from Envigo are acclimated to housing conditions and handled in accordance with Animal Use Protocol (AUP) number TP-08. Animals are fed irradiated Teklad Global 29 18 Rodent Diet and water ad libitum. Mice are housed 6/cage in static cages with irradiated ⅛″ Teklad corn cobbedding 7902 inside bioBubble® clean rooms that provide H.E.P.A filtered air into the bubble environment at 100 complete air changes per hour. The environment is controlled to a temperature range of 74°±4° F. and a humidity range of 30-70%. All procedures carried out in this experiment are conducted in compliance with the laws, regulations, and guidelines of the National Institutes of Health and with the approval of the TransPharm Preclinical Solutions Animal Care and Use Committee.
A clinical isolate of Escherichia coli (strain CFT073, TPPS 1041) are procured from the University of Michigan.
The organism is grown overnight at 37° C. in ambient atmosphere on trypticase soy agar plates supplemented with 5% sheep blood cells. The culture is aseptically swabbed and transferred to tubes of trypticase soy broth. The optical density is determined at 600 nm. The culture is diluted to provide an inoculum of approximately 7.5 log10 CFU per mouse in a volume of 30 μL. Instillation of the bacterial challenge constituted time 0 hour for the study. Inoculum counts are estimated before inoculation by optical density and confirmed after inoculation by dilution and back counts.
One hour prior to bacterial challenge, water is removed from animal cages. […]
The primary endpoint used to assess progress of the infection is mean bacterial burden per gram of urinary bladder tissue. […] Colony forming units (CFU) are enumerated and the total bacterial burden per gram of urinary bladder tissue homogenate is calculated.
The geometric mean CFU, along with standard error of the mean (SEM), are calculated using Microsoft Excel and bar charts are prepared for the data using GraphPad Prism v. […]

Compound	pKa (pKa measurement)	MIC (E. coli; pH 1) [mg/mL]	MIC (E. coli; pH 3) [mg/mL]	MIC (E. coli; pH 5) [mg/mL]	MIC (E. coli; pH 7) [mg/mL]	cell growth [1]	MIC (P. aeruginosa; pH 1) [mg/mL]	MIC (P. aeruginosa; pH 3) [mg/mL]	MIC (P. aeruginosa; pH 5) [mg/mL]	MIC (P. aeruginosa; pH 7) [mg/mL]	effect on cell permeability, cell viability and growth [2]	average bladder CFU burden [3] [log10 CFU]
COC1[C@@H](OP(=O)(O)OCCCCO)[C@@H](COP(=O)(O)OCCCCO)O[C@H]1n1ccc(=O)[nH]c1=O (stereo partly shown) [Nu-2]	2.3											
CCCCOP(=O)(O)OC[C@H]1O[C@@H](n2cc(C)c(=O)[nH]c2=O)C[C@@H]1OP(=O)(O)OCCCC [Nu-3]		12.5 (≈ 24.3 mM)	> 100	> 100	> 100	slight reduction in cell growth resembling that at pH 4 alone	12.5 (≈ 24.3 mM)	> 100	> 100	> 100	ineffective	
CCCCOP(=O)(O)OC[C@H]1O[C@@H](n2cc(C)c(=O)[nH]c2=O)C[C@H]1OP(=O)(O)OCCCC [Nu-4]	2.3											
CCCCOP(=O)(O)OCCOCCOP(=O)(O)OCCCC [Nu-5]	2.28	6.25 (≈ 16.5 mM)	100 (≈ 264 mM)	100 (≈ 264 mM)	100 (≈ 264 mM)		6.25 (≈ 16.5 mM)	100 (≈ 264 mM)	100 (≈ 264 mM)	100 (≈ 264 mM)		
gentamicin [reference compound]												6.1
